The source of these data is paper PMC6994307 (Current Therapeutic Research, Clinical and Experimental, 2019).

Usually EC50 stands for the concentration at which the effect is half-maximal.

The target in series [1] is T1, human CB1 receptor (Homo sapiens, UniProt P21554). The format is binding. The settings on record: for Effect on binding of agonist CP55,940 (in words): [3H]CP55,940 tracer, modulator 1 nM–10 µM.
Series [2] deals with T1, human CB1 receptor. The class given is binding. The note with it: for cooperativity factor: [3H]SR141716A (1 nM) as orthosteric inverse agonist; for Effect on SR141716A binding (in words): [3H]SR141716A tracer, modulator 1 nM–10 µM.
The nature of series [3]: Computational prediction of physicochemical properties and solubility.
The subject of series [4] is CB1. The settings on record: CP55,940 as the tracer; cited from earlier work.
For a further series, the system named is rats. The settings on record: cited from earlier work.
Series [5] deals with CB1. The settings on record: cited from earlier work.
Series [6] concerns CB1. The settings on record: cited from earlier work. This is another data set of the same source.
In series [7] the test system is CB1. The settings on record: cited from earlier work. This is another data set of the same source.
[8] abbreviates: read-out: KB (equilibrium dissociation), [3H]CP55,940 (0.5 nM) as orthosteric ligand, 95% CI in parentheses, NB = no detectable binding with test compound up to 10 µM.
Setting [9] is: on introducing ethanolamine into LDK1321 (6a) and LDK1324 (6b).

Each structure is given as a SMILES string. “Also recorded” adds a separate entry of the source. Where two headings read alike, the source gives them in different places.

T1 sequence (P21554 whole entry): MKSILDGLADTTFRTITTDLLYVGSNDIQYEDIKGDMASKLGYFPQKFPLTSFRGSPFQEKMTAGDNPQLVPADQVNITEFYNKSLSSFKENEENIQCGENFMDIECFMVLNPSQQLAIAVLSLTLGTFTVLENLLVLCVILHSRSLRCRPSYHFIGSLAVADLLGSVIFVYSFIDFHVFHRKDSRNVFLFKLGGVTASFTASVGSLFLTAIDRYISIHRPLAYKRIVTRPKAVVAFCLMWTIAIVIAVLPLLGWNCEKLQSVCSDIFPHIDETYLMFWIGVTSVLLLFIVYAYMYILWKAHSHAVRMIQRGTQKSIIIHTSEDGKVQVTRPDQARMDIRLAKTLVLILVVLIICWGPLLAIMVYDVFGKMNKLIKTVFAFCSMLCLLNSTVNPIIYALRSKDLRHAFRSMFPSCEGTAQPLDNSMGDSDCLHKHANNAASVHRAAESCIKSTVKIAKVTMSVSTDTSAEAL

With `N#Cc1ccc(NC(=O)Nc2ccc3[nH]ccc3c2)cc1` [LDK1318, 1-(4-Cyanophenyl)-3-(1H-indol-5-yl)urea], the “Effect on binding of agonist CP55,940 (in words)” value (shortened to “Effect on binding … (in words)”) at human CB1 receptor [1] is listed as “no binding”. Moreover, at human CB1 receptor [1] (setting [8]), the Kb was more than 10000 nM.

Take `N#Cc1ccc(NC(=O)Nc2cccc(-c3cccc(Cl)n3)c2)cc1` [LDK1324, 1-(3-(6-Chloropyridin-2-yl)phenyl)-3-(4-cyanophenyl)urea]: at human CB1 receptor [2], the cooperativity factor is reported as less than 1 and the “Effect on SR141716A binding (in words)” value is reported as “robust, dose-dependent decrease”. For the same molecule, the Kb at human CB1 receptor [1] is 300 nM. For the same molecule, on human CB1 receptor [1] (listed as LDK1324 (6b)), the “Effect on binding … (in words)” value was “enhanced the binding of agonist CP55,940 to some degree”.

Turning to `N#Cc1ccc(NC(=O)Nc2cccc(-c3ccnc(NCCO)n3)c2)cc1` [LDK1323, 1-(4-Cyanophenyl)-3-(3-(2-((2-hydroxyethyl)amino)pyrimidin-4-yl)phenyl)urea], on human CB1 receptor [2], the cooperativity factor is listed as less than 1 and the “Effect on SR141716A binding (in words)” value is “modest decrease”. In addition, the Kb at human CB1 receptor [1] amounted to 200 nM. Further, on human CB1 receptor [1] (listed as LDK1323 (8a)), the “Effect on binding … (in words)” value was “enhanced the binding of agonist CP55,940 to some degree; also recorded: modest, but positive influence”. Besides, in series [3] (setting [9]), the “Enhancement of calculated intrinsic solubility” value was “approximately 20 fold”.

Take `N#Cc1ccc(NC(=O)Nc2ccc3cc[nH]c3c2)cc1` [LDK1319, 1-(4-Cyanophenyl)-3-(1H-indol-6-yl)urea]: the “Effect on binding … (in words)” value at human CB1 receptor [1] was “no binding”. Further, at human CB1 receptor [1] (setting [8]), the Kb is more than 10000 nM.

Turning to `N#Cc1ccc(NC(=O)Nc2cccc(-c3cccc(N4CCCC4)n3)c2)cc1`, the EC50 in the series with CB1 [4] is 55 nM.

Regarding `N#Cc1ccc(NC(=O)Nc2cccc(-c3cccc(NCCO)n3)c2)cc1` [LDK1325, 1-(4-Cyanophenyl)-3-(3-(6-((2-hydroxyethyl)amino)pyridin-2-yl)phenyl)urea], on human CB1 receptor [1] (listed as LDK1325 (8b)), the “Effect on binding … (in words)” value is on record as “no binding; also recorded: lost its binding affinity”. Moreover, the Kb on human CB1 receptor [1] (setting [8]) is more than 10000 nM. For the same molecule, the “Enhancement of calculated intrinsic solubility” value in series [3] (setting [9]) was “approximately 20 fold”.

On to `O=C(Nc1ccc(Cl)cc1)Nc1cccc(-c2cccc(N3CCCC3)n2)c1` [PSNCBAM-1, 1-(4-Chlorophenyl)-3-{3-[6-(pyrrolidin-1-yl)pyridin-2-yl]phenyl} urea], for which, in the series on rats, the “Food intake and body weight” value is “reduced food intake and body weight”. Also, in the series with CB1 [5], the “Effect on binding of the CB1 agonist CP55,940” value is “enhanced binding” and the “Effect on binding of the inverse agonist SR141716A” value is on record as “reducing the binding”. Further, the “Effect in GTPγS assay” value with CB1 [6] is listed as “noncompetitive, inhibitory effects”. In addition, in the series on CB1 [7], the “Effect in cAMP assay” value was “noncompetitive, inhibitory effects”.

In the case of `CC(=O)Nc1cccc(NC(=O)Nc2ccc(C#N)cc2)c1` [LDK1317, N-(3-(3-(4-Cyanophenyl)ureido)phenyl)acetamide], on human CB1 receptor [1], the Kb was determined as 110 nM and the “Effect on binding … (in words)” value is listed as “enhanced the binding of agonist CP55,940 to some degree”.

In the case of `CN(C)c1ccc(NC(=O)Nc2ccc(C#N)cc2)cc1` [LDK1320, 1-(4-Cyanophenyl)-3-(4-(dimethylamino)phenyl)urea], the Kb on human CB1 receptor [1] stood at 830 nM. The “Effect on binding … (in words)” value at human CB1 receptor [1] (listed as LDK1320 (12b)) is listed as “enhanced the binding of agonist CP55,940 to some degree”. The “Enhancement of calculated intrinsic solubility” value in series [3] (vs PSNCBAM-1, on reducing the number of rings to 2) is on record as “about 400 fold”.

Consider `N#Cc1ccc(NC(=O)Nc2cccc(-c3ccnc(Cl)n3)c2)cc1` [LDK1321, 1-(3-(2-Chloropyrimidin-4-yl)phenyl)-3-(4-cyanophenyl)urea], for which, at human CB1 receptor [2], the cooperativity factor is reported as less than 1 and the “Effect on SR141716A binding (in words)” value is reported as “robust, dose-dependent decrease”. Also, the Kb on human CB1 receptor [1] worked out at 85 nM. Moreover, the “Effect on binding … (in words)” value on human CB1 receptor [1] (listed as LDK1321 (6a)) is “enhanced the binding of agonist CP55,940 to some degree; also recorded: successful in enhancing the binding of agonist CP55,940”.
